Measured values: US20030162206A1, “Ceramide kinase and DNA encoding it” (SANKYO COMPANY, LIMITED, priority 2000, published 2003)

Legend:
[1] = biological target: T1, protein of the present invention having ceramide kinase activity (hCERK1) (Homo sapiens, UniProt Q8TCT0); test: Measurement of ceramide kinase activity, lysate of HEK293 cells transfected with pCR3.1-CERK1, [32P]-γ-ATP, TLC; type: biochemical; conditions: for Phosphorylation by the protein of the present invention (in words): optimum assay conditions for ceramide kinase; for Ratio of activities (pCR3.1-CERK1/pCR3.1) / Phosphorylation activity, Transformed with pCR3.1-CERK 1: substance used as substrate; for Phosphorylation activity, Transformed with pCR3.1-CERK 1: HEK293 cell lysate, [32P]-γ-ATP, 37° C. 20 minutes, pH 7.0, natural ceramide micellized with octyl glucoside; for Effect on ceramide kinase activity (activated / inhibited): C6-ceramide as substrate, examination of optimum assay conditions
T1 construct: expressed in transfected cells; host or cells: HEK293 (ATCC CRL-1573), transient transfection with pCR3.1-CERK1; sonicated cell lysate
T1 sequence (Q8TCT0 1-537): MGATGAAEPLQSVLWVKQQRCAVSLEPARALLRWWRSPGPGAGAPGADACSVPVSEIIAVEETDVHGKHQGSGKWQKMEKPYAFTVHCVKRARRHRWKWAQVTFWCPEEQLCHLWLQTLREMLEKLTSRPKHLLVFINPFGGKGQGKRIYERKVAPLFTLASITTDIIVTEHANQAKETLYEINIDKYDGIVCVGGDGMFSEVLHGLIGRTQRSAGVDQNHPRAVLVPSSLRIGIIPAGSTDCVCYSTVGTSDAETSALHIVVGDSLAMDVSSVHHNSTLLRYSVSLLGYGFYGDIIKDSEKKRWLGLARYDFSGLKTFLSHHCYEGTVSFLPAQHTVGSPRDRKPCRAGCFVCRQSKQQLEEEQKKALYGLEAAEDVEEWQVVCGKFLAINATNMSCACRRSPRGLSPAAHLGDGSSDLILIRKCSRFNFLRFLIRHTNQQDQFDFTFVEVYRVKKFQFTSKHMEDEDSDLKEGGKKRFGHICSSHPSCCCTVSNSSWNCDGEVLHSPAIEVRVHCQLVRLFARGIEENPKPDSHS
Experimental: Specifically, the solution containing the protein, HEPES buffer solution (pH 7.0) containing magnesium chloride, EDTA, dithiothreitol, sodium vanadate, and protease inhibitor (for example, Complete (trademark), manufactured by Boehringer Manheim), C6 ceramide dissolved in a substrate (bovine serum albumin (hereinafter referred to as “BSA”)) solution having a concentration of 4 mg/ml or ceramide micellized by using octyl glucoside (a preparation purified from bovine fetal brain, manufactured by Sigma), and radio-labeled ^32P-ATP are mixed and incubated at 37° C. to perform a ceramide kinase reaction. Then, the reaction is stopped by adding 1N hydrochloric acid thereto and chloroform:methanol:concentrated hydrochloric acid (100:200: 1 v/v) is added thereto and extracted. The resultant lower layer (chloroform phase) is developed on thin layer chromatography (hereinafter referred to as “TLC”), and analyzed. The ceramide kinase activity can be determined by quantifying the spot in said TLC corresponded to ceramide-1-phosphate (hereinafter referred to as “Cer-1-P”) which is a product.
(§1) That is, after putting 6×10^5 HEK293 cells per well into a polylysine-coated 6-well plate for tissue culture (manufactured by Iwaki Glass) and incubating at 37° C. for 24 hours, they were transfected with one μg of pCR3.1-CERK 1 by using a transfection reagent (Lipofectamin plus, manufactured by Life technology) according to the directions attached thereto. After the operation for the transfection was finished, cells were cultured at 37° C. for one day and the conditioned medium was removed. Then, the cells were collected by using buffer solution A (10% glycerol, 1 mM dithiothreitol, 1 mM EDTA, 1 mM sodium vanadate, protease inhibitor (Complete™, manufactured by Boeheringer Mannheim), a 200 mM Hepes buffer solution, pH 7.0). By ultrasonication with a probe-type sonicater (Cell Disrupter 200, manufactured by Branson), the collected cells were broken into pieces, and the resulting cell lysate was diluted and then used for measurement of enzyme activity as shown in Example 3.
(§2) Specifically, 10 μl of 1 mM C6-ceramide prepared by using BSA solution (4 mg/ml) and 10 μl of a mixture of 100 mM magnesium chloride and 2 mM of radiolabeled [^32P]-gamma-ATP (manufactured by NEN) were added to 180 μl of buffer B [1 mM dithiothreitol, 1 mM EDTA, 1 mM sodium vanadate, protease inhibitor (Complete™, manufactured by Boeheringer Mannheim), 1 mM calcium chloride, a 200 mM HEPES buffer solution, pH 7.0] which further contains the protein of the present invention prepared in Example 2, and then incubated at 37° C. for 20 minutes to conduct the ceramide kinase reaction. Next, after stopping the reaction by adding 20 μl of 1 N hydrochloric acid, 800 μl (100:200:1, v/v) of chloroform:methanol:concentrated hydrochloric acid, 250 μl of 2.5 M potassium chloride, and 250 μl of chloroform were added thereto and extracted. The resulting extract was subjected to centrifugation at 2000×g, and the obtained lower layer (chloroform phase) was developed and analyzed on TLC.
That is, a necessary amount of ceramide dissolved in chloroform was dried to be solid under a nitrogen air current, and the buffer solution B which contains 0.2% of octyl glucoside was added thereto, and then subjected to ultrasonication, and finally 100 μM ceramide solution was provided. 90 μl of the mixture of buffer solution B containing the enzyme solution and 10 μl of the mixture consisting of 100 mM magnesium chloride and 2 mM radio-labeled [^32P]-γ-ATP were added to 100 μl of said substrate solution, and then incubated at 37° C. for 20 minutes to perform the ceramide kinase reaction. Extraction of Cer-1-P was conducted by a similar procedure to the above-mentioned.

[2] = system: enzyme activity which HEK293 cell has endogenously; test: Phosphorylation activity of lysate of HEK293 cells transfected with only pCR3.1 vector (negative-reaction control); type: biochemical, human; conditions: substance used as substrate; lysate of HEK293 cells expressing only pCR3.1 vector
Experimental: as §1, with “In order to examine whether the protein of the present invention has ceramide kinase activity, the human embryo kidney cell HEK293 (ATCC CRL-1573) was transfected with the expression vector pCR3.1-CERK1 obtained above. That is,” for “That is,”, “Example 3. […]” for “Example 3.”
as §2, with “Next, after stopping the reaction by adding 20 μl of 1 N hydrochloric acid, 800 μl (100:200:1, v/v) of chloroform:methanol:concentrated hydrochloric acid, 250 μl of 2.5 M potassium chloride, and 250 μl of chloroform were added thereto and extracted.” left out, “TLC. […]” for “TLC.”

Molecule	Phosphorylation by the protein of the present invention (in words) [1]	Ratio of activities (pCR3.1-CERK1/pCR3.1) [1]	Phosphorylation activity, Transformed with pCR3.1-CERK 1 [1]	Km ([1]; substrate C6-ceramide)	Phosphorylation activity, Transformed with pCR3.1 [2]	Effect on ceramide kinase activity (activated / inhibited) [1]
CCCCCCCCCCCCC/C=C/[C@@H](O)[C@H](CO)NC(=O)CCCCC [C6-ceramide, N-hexanoyl form of D-erythro-sphingosine]	high efficiency	183	1280 pmol/min/mg	7 µM	7 pmol/min/mg	
CCCCCCCCCCCCC/C=C/[C@@H](O)[C@@H](N)CO [D-erythro-sphingosine]	hardly phosphorylated	1	50 pmol/min/mg		50 pmol/min/mg	
[Ca+2].[Cl-].[Cl-] [calcium chloride]						activated
C[C@H](CCC(=O)O)[C@H]1CC[C@H]2[C@@H]3[C@H](O)C[C@@H]4C[C@H](O)CC[C@]4(C)[C@H]3C[C@H](O)[C@]12C [cholic acid]						inhibited
[Cl-].[Cl-].[Mg+2] [magnesium chloride]						activated
Triton X-100						inhibited
diacylglycerol [DG]	hardly phosphorylated	1	150 pmol/min/mg		130 pmol/min/mg	
phosphatidylserine						inhibited
